# Key:
# Experiment in all cases: relative viability (nuclei count vs DMSO), 5 days (fraction); higher = more cells survive
# KN-93 + Palbociclib = compound: CN(C/C=C/C1=CC=C(C=C1)Cl)CC2=CC=CC=C2N(CCO)S(=O)(=O)C3=CC=C(C=C3)OC [KN-93] + CC(=O)c1c(C)c2cnc(Nc3ccc(N4CCNCC4)cn3)nc2n(C2CCCC2)c1=O [Palbociclib] (partner 0.5 µM)
# How it was run: (§1)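 Relative viability divides the nuclei count in treated wells by that in vehicle wells. Lung cancer cell lines were seeded in 1536-well plates, dosed by pin tool the next day, and fixed and stained after 5 days in one step with final 0.05% Triton X-100, 1% formaldehyde and 1 ug/ml Hoechst. Dosing was a single drug or a fixed anchor-drug dose plus five library-drug doses (not always all listed) in √10 steps, and values are medians of duplicate plates imaged at 4×.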
# KN-93 + Pemetrexed = compound: CN(C/C=C/C1=CC=C(C=C1)Cl)CC2=CC=CC=C2N(CCO)S(=O)(=O)C3=CC=C(C=C3)OC [KN-93] + Nc1nc2[nH]cc(CCc3ccc(C(=O)N[C@@H](CCC(=O)O)C(=O)O)cc3)c2c(=O)[nH]1 [Pemetrexed] (partner 0.2 µM)
# How it was run: as §1
# KN-93 + Lapatinib = compound: CN(C/C=C/C1=CC=C(C=C1)Cl)CC2=CC=CC=C2N(CCO)S(=O)(=O)C3=CC=C(C=C3)OC [KN-93] + CS(=O)(=O)CCNCc1ccc(-c2ccc3ncnc(Nc4ccc(OCc5cccc(F)c5)c(Cl)c4)c3c2)o1 [Lapatinib] (partner 2 µM)
# How it was run: as §1
# KN-93 + Bortezomib = compound: CN(C/C=C/C1=CC=C(C=C1)Cl)CC2=CC=CC=C2N(CCO)S(=O)(=O)C3=CC=C(C=C3)OC [KN-93] + CC(C)C[C@H](NC(=O)[C@H](Cc1ccccc1)NC(=O)c1cnccn1)B(O)O [Bortezomib] (partner 0.002 µM)
# How it was run: as §1
# KN-93 + Pictilisib = compound: CN(C/C=C/C1=CC=C(C=C1)Cl)CC2=CC=CC=C2N(CCO)S(=O)(=O)C3=CC=C(C=C3)OC [KN-93] + CS(=O)(=O)N1CCN(Cc2cc3nc(-c4cccc5[nH]ncc45)nc(N4CCOCC4)c3s2)CC1 [Pictilisib] (partner 1 µM)
# How it was run: as §1
Cell Line,relative viability (KN-93 + Palbociclib; first compound 0.08 µM),relative viability (KN-93 + Palbociclib; first compound 0.253 µM),relative viability (KN-93 + Palbociclib; first compound 2.53 µM),relative viability (KN-93 + Palbociclib; first compound 8 µM),relative viability (KN-93 + Pemetrexed; first compound 0.08 µM),relative viability (KN-93 + Pemetrexed; first compound 0.253 µM),relative viability (KN-93 + Pemetrexed; first compound 2.53 µM),relative viability (KN-93 + Pemetrexed; first compound 8 µM),relative viability (KN-93 + Lapatinib; first compound 0.08 µM),relative viability (KN-93 + Lapatinib; first compound 0.253 µM),relative viability (KN-93 + Lapatinib; first compound 2.53 µM),relative viability (KN-93 + Lapatinib; first compound 8 µM),relative viability (KN-93 + Bortezomib; first compound 0.08 µM),relative viability (KN-93 + Bortezomib; first compound 0.253 µM),relative viability (KN-93 + Bortezomib; first compound 2.53 µM),relative viability (KN-93 + Bortezomib; first compound 8 µM),relative viability (KN-93 + Pictilisib; first compound 0.08 µM),relative viability (KN-93 + Pictilisib; first compound 0.253 µM),relative viability (KN-93 + Pictilisib; first compound 2.53 µM),relative viability (KN-93 + Pictilisib; first compound 8 µM)
LC-2-ad,0.491,0.517,0.529,0.452,0.272,0.272,0.298,0.295,0.952,1.21,0.997,0.673,0.975,0.998,1.22,0.446,0.313,0.373,0.368,0.187
LCLC-97TM1,0.293,0.227,0.207,0.158,0.199,0.165,0.179,0.145,1.06,,1.12,0.425,0.636,0.576,0.906,0.466,0.176,,0.182,0.156
LOU-NH91,0.542,0.562,0.56,0.512,0.356,0.325,0.445,0.439,0.761,0.575,0.886,0.692,0.534,0.456,0.48,0.392,0.513,0.422,0.568,0.489
LU99A,0.455,0.457,0.397,0.371,0.183,0.183,0.189,0.222,1.16,1.21,0.797,0.89,1.08,1.28,1.33,0.93,0.302,0.366,0.32,0.308
LXF-289,0.512,0.672,0.628,0.552,0.925,0.926,0.977,0.684,0.845,0.934,1,0.737,0.853,1.12,1.12,0.833,0.724,0.891,0.825,0.559
NCI-H23,0.516,0.493,0.618,0.418,0.685,0.866,0.883,0.502,1.05,1.1,1.31,0.883,0.878,1.07,1.14,0.893,0.414,0.559,0.58,0.446
NCI-H322M,0.481,0.503,0.494,0.445,0.641,0.628,0.701,0.614,0.605,0.633,0.61,0.566,1.36,1.21,1.29,1.14,0.496,0.423,0.531,0.51
NCI-H460,0.167,0.0991,0.147,0.205,0.0661,0.0588,0.0591,0.0687,0.302,1.27,1.12,0.45,0.813,1.93,,0.717,0.301,0.329,0.465,0.117
NCI-H520,0.219,0.218,0.251,0.201,0.72,0.738,0.658,0.422,,0.904,1.05,0.727,,0.883,0.914,0.511,,0.32,0.297,0.26
NCI-H647,0.346,0.364,0.349,0.473,0.176,0.181,0.159,0.174,0.836,1.07,1.26,0.819,0.712,1.16,1.63,0.986,0.493,0.327,0.462,0.336
NCI-H650,0.314,0.307,0.327,0.271,1.02,0.993,1.04,0.788,1.19,1.04,1.29,0.615,0.959,0.915,1.25,0.454,0.906,0.892,1.06,0.605
NCI-H661,0.439,0.409,0.308,0.308,0.89,1.15,0.753,0.504,0.484,0.511,0.448,0.447,0.735,0.901,0.713,0.665,0.396,0.417,0.336,0.253
NCI-H838,0.222,0.182,0.216,0.212,0.258,0.278,0.25,0.214,0.903,0.78,1.12,0.746,0.735,0.919,1.16,0.796,0.556,0.378,0.391,0.362
NCI-H1355,0.427,0.342,0.436,0.332,1.11,0.918,1.27,0.972,0.954,0.79,1.05,0.913,1.11,1.11,1.3,0.895,0.391,0.352,0.389,0.295
NCI-H1437,0.325,0.285,0.271,0.294,0.317,0.312,0.247,0.19,0.632,0.963,0.875,0.425,0.465,0.564,0.53,0.365,0.416,0.379,0.394,0.301
NCI-H1650,0.377,0.323,0.391,0.269,0.338,0.427,0.372,0.34,0.758,0.754,0.952,0.482,0.218,0.196,0.208,0.203,0.527,0.537,0.582,0.239

Cell Line,relative viability (KN-93 + Palbociclib; first compound 0.08 µM),relative viability (KN-93 + Palbociclib; first compound 0.253 µM),relative viability (KN-93 + Palbociclib; first compound 2.53 µM),relative viability (KN-93 + Palbociclib; first compound 8 µM),relative viability (KN-93 + Pemetrexed; first compound 0.08 µM),relative viability (KN-93 + Pemetrexed; first compound 0.253 µM),relative viability (KN-93 + Pemetrexed; first compound 2.53 µM),relative viability (KN-93 + Pemetrexed; first compound 8 µM),relative viability (KN-93 + Lapatinib; first compound 0.08 µM),relative viability (KN-93 + Lapatinib; first compound 0.253 µM),relative viability (KN-93 + Lapatinib; first compound 2.53 µM),relative viability (KN-93 + Lapatinib; first compound 8 µM),relative viability (KN-93 + Bortezomib; first compound 0.08 µM),relative viability (KN-93 + Bortezomib; first compound 0.253 µM),relative viability (KN-93 + Bortezomib; first compound 2.53 µM),relative viability (KN-93 + Bortezomib; first compound 8 µM),relative viability (KN-93 + Pictilisib; first compound 0.08 µM),relative viability (KN-93 + Pictilisib; first compound 0.253 µM),relative viability (KN-93 + Pictilisib; first compound 2.53 µM),relative viability (KN-93 + Pictilisib; first compound 8 µM)
NCI-H1651,0.511,0.536,0.582,0.488,0.611,0.701,0.567,0.511,0.732,1.02,0.914,0.664,0.976,1.03,0.987,0.805,0.45,0.658,0.532,0.477
NCI-H1666,0.639,0.656,0.669,0.622,0.844,1,0.818,0.821,0.747,0.638,0.679,0.532,0.753,0.669,0.945,0.607,0.56,0.388,0.489,0.527
NCI-H1734,0.345,0.396,0.335,0.263,0.457,0.478,0.399,0.417,1.15,1.1,1.6,0.88,0.941,0.902,1.1,0.566,0.534,0.548,0.492,0.29
NCI-H1755,0.478,0.462,0.45,0.455,0.455,0.432,0.453,0.44,1.02,1.26,1.04,0.561,0.923,1.07,0.967,0.546,0.413,0.429,0.475,0.205
NCI-H1792,0.401,0.649,0.796,0.605,0.605,0.909,0.971,0.513,,0.904,1.67,0.818,,0.923,1.04,0.781,,0.233,0.253,0.223
NCI-H1915,0.536,0.537,0.513,0.438,0.471,0.601,0.515,0.506,0.963,1.25,1.01,0.908,0.929,1.31,1.1,0.54,0.967,0.865,0.928,0.806
NCI-H1975,0.475,0.477,0.742,0.193,0.277,0.299,0.309,0.221,0.656,1.05,0.976,0.579,0.334,0.38,0.33,0.249,0.281,0.267,0.28,0.25
NCI-H1993,0.628,0.563,0.595,0.498,0.474,0.535,0.618,0.58,0.693,0.772,0.862,0.758,0.836,1.02,1.2,0.523,0.689,1.07,0.761,0.754
NCI-H2009,0.244,0.204,0.217,0.196,1.01,1.07,1.1,0.796,0.899,0.891,0.814,0.418,1.05,0.995,0.84,0.462,0.841,1.01,0.761,0.345
NCI-H2023,0.384,0.436,0.49,0.227,0.244,0.247,0.325,0.14,0.804,0.858,0.932,0.239,0.971,0.955,1.04,0.448,0.3,0.212,0.22,0.167
NCI-H2085,0.484,0.427,0.456,0.387,0.933,0.905,0.883,0.739,0.816,0.695,0.803,0.541,0.909,1.12,1.16,0.663,0.438,0.452,0.518,0.414
NCI-H2087,0.228,0.218,0.208,0.175,0.694,0.672,0.564,0.607,1.06,1.22,1.02,0.286,0.759,1.24,0.874,0.33,0.839,0.967,0.898,0.466
NCI-H2126,0.341,0.333,0.362,0.354,0.541,0.64,0.69,0.654,0.806,0.659,0.804,0.702,1.07,1.08,1.19,1.09,0.482,0.443,0.499,0.468
NCI-H2228,0.723,0.97,1.09,0.165,0.407,0.383,0.353,0.252,1.15,1.17,1.04,0.728,1.01,1.18,1.14,0.817,0.251,0.324,0.384,0.329
NCI-H2347,0.378,0.44,0.434,0.407,0.376,0.473,0.45,0.549,0.932,0.921,1.17,0.595,1.27,0.741,0.828,0.745,0.572,0.616,0.696,0.543

# — the supplement of paper PMC10307832
